Source: US20110166149A1, “PTERIDINE DERIVATIVES FOR TREATING RESPIRATORY DISEASE” (TARGEGEN INC., priority 2008, published 2011)
Several values for one entry are separate records, joined by “and”; a condition that tells them apart may be missing. Equal entries are not always repeated. Where two headings read alike, the source gives them in different places.

Experiments:
[1] = Lung exposure in mice, nose-only chamber nebulization (Example 3); assay type: in vivo, Balb/c mice; details: 30 min nebulization, immediately after
Method: A series of compositions for pulmonary delivery were prepared by making a 20% suspension of compound A in a 5% tyloxapol solution in water. Particle size reduction was achieved using a colloid mill (magicLAB®, MK module, for 6 hours @ 12,000 rpm, while maintaining a temperature below 50° C.). Samples at 4% compound A were prepared by dilution with DI water. A 0.4% compound A suspension in 0.1% tyloxapol solution, was made by dilution with SWFI (6.02 g of the 20% suspension was QS to 30.23 g with SWFI).
0.4% compound A suspension in 0.1% tyloxapol solution: 2.07 g of a 4% compound A suspension was diluted to 20 g with DI water.
0.04% compound A suspension in 0.01% tyloxapol solution: 2.03 g of a 0.4% compound A suspension was diluted to 20 g with DI water. 0.004% compound A suspension in 0.001% tyloxapol solution: 2.05 g of a 0.04% compound A suspension was diluted to 20 g with DI water.
Compositions were delivered via a nose-only chamber (CH Technologies) to Balb/c mice by nebulizing for 30 minutes the composition with a PARI LC plus at 3 LPM with a 5 LPM dilutor (of dry air), tissues, plasma and BALF (3 mL used of PBS) collected after sacrificing immediately after nebulization, and were analyzed by HPLC-MS.

[2] = Solubility of Compound A; assay type: physicochemical
[3] = Estimated lung exposure level calculated from respirable dose (Example 1); details: 30 minute exposure assumed, mouse
Method: Estimated lung exposure levels were calculated based on the following assumptions: respirable dose collected from 7 stage impactor; 30 minute exposure time; mouse minute volume of 23 mL/min; mouse weight of 25 g; mouse lung weight of 250 mg (1% of body weight).

[4] = Aerodynamic particle size of nebulized suspensions, 7 stage impactor (Example 1); assay type: physicochemical; details: nebulized suspension
Method: 6,7-bis(3-hydroxyphenyl)-pteridine-2,4-diamine (Compound A) was formulated as a 20% suspension in a 5% tyloxapol solution in water. Particle size reduction was achieved using a colloid mill (magicLAB®, MK module, for 6 hours @ 12,000 rpm, while maintaining a temperature below 50° C.). Samples at 4, 0.4, 0.04 and 0.004% of compound A were prepared by dilution with DI water.
Nebulizations of the suspensions were carried out using a Pari LC Plus @ 3 LPM, using an active diluter at 5 LPM in a CH technologies nose-only exposure chamber. Aerodynamic particle size was determined by a 7 stage impactor from Intox at 1 LPM. Each stage extracted with acetonitrile:water 1:1 with 0.05% TFA and analyzed by HPLC against an external standard.

[5] = Particle size of nebulized solution, 7 stage cascade impactor (Example 5); assay type: physicochemical; details: nebulized solution ~3.3 mg/mL, pH ~3, tyloxapol/PVP 90F
Method: 36 mg of compound A was dissolved with the aid of 0.5 N HCl (QS to 1 g) under mixing and heat. 200 μL of this solution was mixed using a sonicator bath, if necessary with a separately prepared solution containing 1.8 mg of a 0.02% tyloxapol/2% PVP 90F and 34 μL of a 2 N NaOH, to give a final concentration of ˜3.3 mg/mL of compound A at a pH of ˜3.

[6] = formulation conc. 0.004%, individual animals 3A-3E
[7] = formulation conc. 0.04%, individual animals 2A-2E
[8] = formulation conc. 0.40%, individual animals 1A-1E

## Nc1nc(N)c2nc(-c3cccc(O)c3)c(-c3cccc(O)c3)nc2n1 [Compound A, 6,7-bis(3-hydroxyphenyl)-pteridine-2,4-diamine]
[1]; formulation conc. 0.004%, Mean
  Compound A concentration BALF: 22.9 ± 34.0 ng/mL
  Compound A concentration Lung: 0.12 ± 0.02 µg/g
  Compound A concentration Plasma: <LLOQ
[1]; [6]
  Compound A concentration BALF: 83.6 ng/mL and 10.0 ng/mL and 7.84 ng/mL and 7.82 ng/mL and 4.99 ng/mL
  Compound A concentration Lung: 0.14 μg/g and 0.12 μg/g and 0.10 μg/g (2×) and 0.13 μg/g
  Compound A concentration Plasma: <LLOQ
[1]; formulation conc. 0.04%, Mean
  Compound A concentration BALF: 71.6 ± 38.4 ng/mL
  Compound A concentration Lung: 1.48 ± 0.49 µg/g
[1]; [7]
  Compound A concentration BALF: 62.6 ng/mL and 93 ng/mL and 92.1 ng/mL and 102 ng/mL and 8.19 ng/mL
  Compound A concentration Lung: 2.3 µg/g and 1.0 µg/g and 1.5 µg/g and 1.4 µg/g and 1.3 µg/g
  Compound A concentration Plasma: <LLOQ (4×) and 6.37 ng/mL
[1]; formulation conc. 0.40%, Mean
  Compound A concentration BALF: 1870 ± 1902 ng/mL
  Compound A concentration Lung: 6.7 ± 1.1 µg/g
  Compound A concentration Plasma: 5.16 ± 2.39 ng/mL
[1]; [8]
  Compound A concentration BALF: 1370 ng/mL and 5240 ng/mL and 1200 ng/mL and 804 ng/mL and 737 ng/mL
  Compound A concentration Lung: 8.2 μg/g and 32.1(?) μg/g and 6.1 μg/g and 6.5 μg/g and 5.9 μg/g
  Compound A concentration Plasma: 2.51 ng/mL and 3.98 ng/mL and 8.46 ng/mL and 6.73 ng/mL and 4.1 ng/mL
[2]; DMSO and selected aprotic solvents with high dielectric constants
  dissolution in organic solvents: readily dissolves
[2]; between pH of 3 and 9
  solubility: negligible solubility
[2]; water, aqueous buffer, pH below 2 and above 10, read-out: water solubility
  solubility: > 20 mg/mL
[3]; 0.004% Compound A suspension
  Estimated lung conc.: 0.1 µg/g
[3]; 0.04% Compound A suspension
  Estimated lung conc.: 1.4 µg/g
[3]; 0.4% Compound A suspension
  Estimated lung conc.: 11 µg/g
[3]; 4% Compound A suspension
  Estimated lung conc.: 75 µg/g
[4]; 0.004% Compound A
  MMAD (GSD): 0.64 (2.35)
[4]; 0.04% Compound A
  MMAD (GSD): 0.69 (1.74)
[4]; 0.4% Compound A
  MMAD (GSD): 0.83 (1.87)
[4]; 4% Compound A, MMAD = mass median aerodynamic diameter, GSD = geometric standard deviation
  MMAD (GSD): 1.35 (1.98)
[5]
  GSD: 2.1
  MMAD: ~1 μm
